Measurements as given in patent US10472336B2, “Modulators of indoleamine 2,3-dioxygenase” (GlaxoSmithKline Intellectual Property (No.2) Limited, priority 2015, dated 2019).
Counter-ions that a name gives are not always drawn.

Target: indoleamine 2, 3-dioxygenase (IDO1) (Homo sapiens, UniProt P14902)
Test: HeLa IDOi assay (kynurenine detection by mass spectrometry)
Format: cell-based
Design: human epithelial HeLa cells (CCL-2; host or cells: HeLa cells stimulated with human IFN-γ
Conditions: IFN-γ stimulated human epithelial HeLa cells, 2 days
Method: Compounds of the present invention were tested via high-throughput cellular assays utilizing detection of kynurenine via mass spectrometry and cytotoxicity as end-points. For the mass spectrometry and cytotoxicity assays, human epithelial HeLa cells (CCL-2; ATCC®, Manassas, Va.) were stimulated with human interferon-γ (IFN-γ) (Sigma-Aldrich Corporation, St. Louis, Mo.) to induce the expression of indoleamine 2, 3-dioxygenase (IDO1). Compounds with IDO1 inhibitory properties decreased the amount of kynurenine produced by the cells via the tryptophan catabolic pathway. Cellular toxicity due to the effect of compound treatment was measured using CellTiter-Glo® reagent (CTG) (Promega Corporation, Madison, Wis.), which is based on luminescent detection of ATP, an indicator of metabolically active cells.
In preparation for the assays, test compounds were serially diluted 3-fold in DMSO from a typical top concentration of 5 mM and plated at 0.5 μL in 384-well, polystyrene, clear bottom, tissue culture treated plates with lids (Greiner Bio-One, Kremsmünster, Austria) to generate 11-point dose response curves. Low control wells (0% kynurenine or 100% cytotoxicity) contained either 0.5 μL of DMSO in the presence of unstimulated (−IFN-γ) HeLa cells for the mass spectrometry assay or 0.5 μL of DMSO in the absence of cells for the cytotoxicity assay, and high control wells (100% kynurenine or 0% cytotoxicity) contained 0.5 μL of DMSO in the presence of stimulated (+IFN-γ) HeLa cells for both the mass spectrometry and cytotoxicity assays.
Frozen stocks of HeLa cells were washed and recovered in DMEM high glucose medium with HEPES (Thermo Fisher Scientific, Inc., Waltham, Mass.) supplemented with 10% v/v certified fetal bovine serum (FBS) (Thermo Fisher Scientific, Inc., Waltham, Mass.), and 1× penicillin-streptomycin antibiotic solution (Thermo Fisher Scientific, Inc., Waltham, Mass.). The cells were diluted to 100,000 cells/mL in the supplemented DMEM medium. 50 μL of either the cell suspension, for the mass spectrometry assay, or medium alone, for the cytotoxicity assay, were added to the low control wells, on the previously prepared 384-well compound plates, resulting in 5,000 cells/well or 0 cells/well respectively. IFN-γ was added to the remaining cell suspension at a final concentration of 10 nM, and 50 μL of the stimulated cells were added to all remaining wells on the 384-well compound plates. The plates, with lids, were then placed in a 37° C., 5% CO2 humidified incubator for 2 days.
Following incubation, the 384-well plates were removed from the incubator and allowed to equilibrate to room temperature for 30 minutes. For the cytotoxicity assay, CellTiter-Glo® was prepared according to the manufacturer's instructions, and 10 μL were added to each plate well. After a twenty minute incubation at room temperature, luminescence was read on an EnVision® Multilabel Reader (PerkinElmer Inc., Waltham, Mass.). For the mass spectrometry assay, 10 μL of supernatant from each well of the compound-treated plates were added to 40 μL of acetonitrile, containing 10 μM of an internal standard for normalization, in 384-well, polypropylene, V-bottom plates (Greiner Bio-One, Kremsmünster, Austria) to extract the organic analytes. Following centrifugation at 2000 rpm for 10 minutes, 10 μL from each well of the acetonitrile extraction plates were added to 90 μL of sterile, distilled H2O in 384-well, polypropylene, V-bottom plates for analysis of kynurenine and the internal standard on the RapidFire 300 (Agilent Technologies, Santa Clara, Calif.) and 4000 QTRAP MS (SCIEX, Framingham, Mass.). MS data were integrated using Agilent Technologies' RapidFire Integrator software, and data were normalized for analysis as a ratio of kynurenine to the internal standard. […]

Sequence of indoleamine 2, 3-dioxygenase (IDO1) (P14902 whole entry): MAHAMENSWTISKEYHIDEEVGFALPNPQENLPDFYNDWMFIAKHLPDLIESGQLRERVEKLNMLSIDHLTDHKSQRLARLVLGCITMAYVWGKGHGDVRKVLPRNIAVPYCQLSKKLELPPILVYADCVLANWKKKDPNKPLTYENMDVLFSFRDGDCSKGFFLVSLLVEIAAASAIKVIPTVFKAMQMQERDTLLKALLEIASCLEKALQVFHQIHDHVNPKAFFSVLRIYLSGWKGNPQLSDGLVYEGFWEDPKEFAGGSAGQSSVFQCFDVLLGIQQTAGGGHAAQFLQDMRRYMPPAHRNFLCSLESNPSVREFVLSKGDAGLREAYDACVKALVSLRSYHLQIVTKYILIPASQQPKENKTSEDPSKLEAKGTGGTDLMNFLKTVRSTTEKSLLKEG

EC50 | Compound
3.98 nM | CC(C)CN(CC(C)C)c1ccc(C(C)CC(=O)O)cc1Nc1nc2ccccc2[nH]1 (centres unmarked) [Example 2, 3-(3-((1H-benzo[d]imidazol-2-yl)amino)-4-(diisobutylamino)phenyl)butanoic acid]
501 nM | CC(C)CN(CC(C)C)c1ccc(C(C)CC(=O)O)cc1Nc1nc(-c2ccccc2)co1 (centres unmarked) [Example 3, 3-(4-(diisobutylamino)-3-((4-phenyloxazol-2-yl)amino)phenyl)butanoic acid]
631 nM | CC(C)CN(CC(C)C)c1ccc(C(C)CC(=O)O)cc1Nc1nc(C(C)C)co1 (centres unmarked) [Example 4, 3-(4-(diisobutylamino)-3-((4-isopropyloxazol-2-yl)amino)phenyl)butanoic acid]
20 nM | CC(C)CN(CC(C)C)c1ccc(C(C)CC(=O)O)cc1Nc1nc(C(F)(F)F)co1 (centres unmarked) [Example 5, 3-(4-(diisobutylamino)-3-((4-(trifluoromethyl)oxazol-2-yl)amino)phenyl)butanoic acid]
2.51 nM | CC(C)CN(c1ccc(C(C)CC(=O)O)cc1Nc1nc2ccccc2[nH]1)C1CCCCC1 (centres unmarked) [Example 6, 3-(3-((1H-benzo[d]imidazol-2-yl)amino)-4-(cyclohexyl(isobutyl)amino)phenyl)butanoic acid]
5.01 nM | CC(C)CN(c1ccc(C(C)CC(=O)O)cc1Nc1nc(Cl)ns1)C1CCCCC1 (centres unmarked) [Example 7, 3-(3-((3-chloro-1,2,4-thiadiazol-5-yl)amino)-4-(cyclohexyl(isobutyl)amino)phenyl)butanoic acid]
31.6 nM | CC(C)CN(c1ccc(C(C)CC(=O)O)cc1Nc1nc2ccccc2o1)C1CCCCC1 (centres unmarked) [Example 8, 3-(3-(benzo[d]oxazol-2-ylamino)-4-(cyclohexyl(isobutyl)amino)phenyl)butanoic acid]
3.98 nM | CC(C)CN(c1ccc(C(C)CC(=O)O)cc1Nc1nc2ccccc2s1)C1CCCCC1 (centres unmarked) [Example 9, 3-(3-(benzo[d]thiazol-2-ylamino)-4-(cyclohexyl(isobutyl)amino)phenyl)butanoic acid]
100 nM | CC(C)CN(c1ccc(C(C)CC(=O)O)cc1Nc1nc(-c2ccccc2)co1)C1CCCCC1 (centres unmarked) [Example 10, 3-(4-(cyclohexyl(isobutyl)amino)-3-((4-phenyloxazol-2-yl)amino)phenyl)butanoic acid]
100 nM | CC(C)CN(CC(C)C)c1ccc(C(C)CC(=O)O)cc1Nc1ccnc(Cl)n1 (centres unmarked) [Example 11, 3-(3-((2-chloropyrimidin-4-yl)amino)-4-(diisobutylamino)phenyl)butanoic acid, 2,2,2-trifluoro-acetic acid salt]
12.6 nM | CC(C)CN(c1ccc(C(C)CC(=O)O)cc1Nc1ccnc(Cl)n1)C1CCCCC1 (centres unmarked) [Example 13, 3-(3-((2-chloropyrimidin-4-yl)amino)-4-(cyclohexyl(isobutyl)amino)phenyl)butanoic acid]
39.8 nM | COc1nccc(Nc2cc(C(C)CC(=O)O)ccc2N(CC(C)C)C2CCCCC2)n1 (centres unmarked) [Example 14, 3-(4-(cyclohexyl(isobutyl)amino)-3-((2-methoxypyrimidin-4-yl)amino)phenyl)butanoic acid]
158 nM | Cc1cnc(Nc2cc(C(C)CC(=O)O)ccc2N(CC(C)C)CC(C)C)s1 (centres unmarked) [Example 15, 3-(4-(diisobutylamino)-3-((5-methylthiazol-2-yl)amino)phenyl)butanoic acid]
126 nM | CC(C)CN(CC(C)C)c1ccc(C(C)CC(=O)O)cc1Nc1cnc(-c2ccccc2)s1 (centres unmarked) [Example 16, 3-(4-(diisobutylamino)-3-((2-phenylthiazol-5-yl)amino)phenyl)butanoic acid]
25.1 nM | CCOC(=O)c1ncc(Nc2cc(C(C)CC(=O)O)ccc2N(CC(C)C)CC(C)C)s1 (centres unmarked) [Example 17, 3-(4-(diisobutylamino)-3-((2-(ethoxycarbonyl)thiazol-5-yl)amino)phenyl)butanoic acid]
316 nM | Cc1csc(Nc2cc(C(C)CC(=O)O)ccc2N(CC(C)C)CC(C)C)n1 (centres unmarked) [Example 24, 3-(4-(diisobutylamino)-3-((4-methylthiazol-2-yl)amino)phenyl)butanoic acid]
5.01 nM | CC(C)CN(CC(C)C)c1ccc(C(C)CC(=O)O)cc1Nc1nnc(C2CC2)s1 (centres unmarked) [Example 26, 3-(3-((5-cyclopropyl-1,3,4-thiadiazol-2-yl)amino)-4-(diisobutylamino)phenyl)butanoic acid, 2,2,2-trifluoro-acetic acid salt]
31.6 nM | CC(C)CN(CC(C)C)c1ccc(C(C)CC(=O)O)cc1Nc1nnc(-c2ccccc2)s1 (centres unmarked) [Example 27, 3-(4-(diisobutylamino)-3-((5-phenyl-1,3,4-thiadiazol-2-yl)amino)phenyl)butanoic acid]
31.6 nM | Cc1nnc(Nc2cc(C(C)CC(=O)O)ccc2N(CC(C)C)CC(C)C)s1 (centres unmarked) [Example 28, 3-(4-(diisobutylamino)-3-((5-methyl-1,3,4-thiadiazol-2-yl)amino)phenyl)butanoic acid]
50.1 nM | CC(C)CN(CC(C)C)c1ccc(C(C)CC(=O)O)cc1Nc1nc(C2CC2)ns1 (centres unmarked) [Example 30, 3-(3-((3-cyclopropyl-1,2,4-thiadiazol-5-yl)amino)-4-(diisobutylamino)phenyl)butanoic acid]
79.4 nM | Cc1nsc(Nc2cc(C(C)CC(=O)O)ccc2N(CC(C)C)CC(C)C)n1 (centres unmarked) [Example 31, 3-(4-(diisobutylamino)-3-((3-methyl-1,2,4-thiadiazol-5-yl)amino)phenyl)butanoic acid]
200 nM | CC(C)CN(CC(C)C)c1ccc(C(C)CC(=O)O)cc1Nc1nc(Br)ns1 (centres unmarked) [Example 32, 3-(3-((3-bromo-1,2,4-thiadiazol-5-yl)amino)-4-(diisobutylamino)phenyl)butanoic acid]
2.51 nM | CC(C)CN(c1ccc(C(C)CC(=O)O)cc1Nc1nc(C(F)(F)F)ns1)C1CCCCC1 (centres unmarked) [Example 33, 3-(4-(cyclohexyl(isobutyl)amino)-3-((3-(trifluoromethyl)-1,2,4-thiadiazol-5-yl)amino)phenyl)butanoic acid]
200 nM | CCCCc1cc(C(C)CC(=O)O)cc(Nc2nc3ccccc3o2)c1OCCC (centres unmarked) [Example 35, 3-(3-(benzo[d]oxazol-2-ylamino)-5-butyl-4-propoxyphenyl)butanoic acid]
158 nM | CCCCc1cc(C(C)CC(=O)O)cc(Nc2nc(Cl)ns2)c1OCCC (centres unmarked) [Example 36, 3-(3-butyl-5-((3-chloro-1,2,4-thiadiazol-5-yl)amino)-4-propoxyphenyl)butanoic acid, 2,2,2-trifluoroacetic acid salt]
316 nM | Cc1nc(Nc2cc(C(C)CC(=O)O)ccc2N(CC(C)C)CC(C)C)sc1C (centres unmarked) [Example 43, 3-(4-(diisobutylamino)-3-((4,5-dimethylthiazol-2-yl)amino)phenyl)butanoic acid]
20 nM | CC(C)CN(CC(C)C)c1ccc(C(C)CC(=O)O)cc1Nc1nc(C(F)(F)F)cs1 (centres unmarked) [Example 44, 3-(4-(diisobutylamino)-3-((4-(trifluoromethyl)thiazol-2-yl)amino)phenyl)butanoic acid]
79.4 nM | Cc1sc(Nc2cc(C(C)CC(=O)O)ccc2N(CC(C)C)CC(C)C)nc1C(F)(F)F (centres unmarked) [Example 45, 3-(4-(diisobutylamino)-3-((5-methyl-4-(trifluoromethyl)thiazol-2-yl)amino)phenyl)butanoic acid]
126 nM | CC(C)CN(CC(C)C)c1ccc(C(C)CC(=O)O)cc1Nc1nc(C(C)C)cs1 (centres unmarked) [Example 46, 3-(4-(diisobutylamino)-3-((4-isopropylthiazol-2-yl)amino)phenyl)butanoic acid]
